# From article PMC8658889, “Seriniquinones as Therapeutic Leads for Treatment of BRAF and NRAS Mutant Melanomas” (Molecules, 2021)
# Tested on: SK-MEL-28
# Test: Clonogenic assay
# Assay type: cell-based, Human
# Details: SK-MEL-28, 24 h treatment at half IC50 and IC50, 6 days in drug-free medium
# Protocol: […] (2.5 × 10^5) cells in 1 mL of media were seeded in cell culture dishes and, 24 h later, treated with SQ1 (0.3 µM and 0.6 µM for SK-MEL-28 and 0.9 µM and 1.8 µM for SK-MEL-147) or SQ2 (0.05 µM and 0.1 µM for SK-MEL-28 and 0.6 µM and 1.2 µM for SK-MEL-147) for 24 h. Doxorubicin (DOX; 1.4 µM for SK-MEL-28 and 0.8 µM for SK-MEL-147) was used as positive control and 0.5% DMSO as negative control.
# After the cells were submitted to the treatment scheme (Section 4.6), adherent cells were collected, plated at 1 × 10^3 cell/plate on 35-mm plates and maintained in culture for 6 days in treatment-free medium. The medium was replaced every 2 days. Cells were then fixed and stained with a solution of 20% MeOH (Synth, Diadema, São Paulo, Brazil) and 0.5 g crystal violet (Sigma-Aldrich, St. Louis, MO, USA). Images were acquired using G:BOX Chemi XRQ (Syngene, Cambridge, UK) and quantified using the ImageJ program (ColonyArea; US National Institutes of Health, Bethesda, MD, USA).
smiles,measurement,value
"O=c1c2ccccc2c(=O)c2c1sc1c(=O)c3ccccc3c(=O)c12 [SQ1, seriniquinone]",reduction of the colony levels,greater than 50%
